Source: patent US8592426B2, “Aryl-benzocycloalkyl amide derivatives” (Hoffmann—La Roche Inc., priority 2011, dated 2013)

Assays:
[1] = target: T1, Bradykinin-1 receptor (Homo sapiens (Human), UniProt P46663); assay: Calcium mobilization assay (FLIPR, Fluo-4) in GeneBLAzer Bradykinin (B1)-NFAT-bla CHO-K1 cells; format: cell-based; settings: antagonist activity; CHO-K1 cells stably overexpressing the human bradykinin 1 receptor; read-out: Ca mobilization Assay IC50
Method: Calcium Mobilization Assay
GeneBLAzer® Bradykinin (B1)-NFAT-bla CHO-K1 cells (from Invitrogen) stably overexpressing the human bradykinin 1 receptor were cultured in DMEM (high glucose) supplemented with 10% dialysed FBS, 1% NEAA (non essential amino acids) 1% penicillin/streptomycin, 1% G418 and 0.1 mg/ml zeocin.
For the assay cells were grown overnight in 384-well black clear flat bottom polystyrene plates (Costar) at 37° C. at 5% CO2. After washing with DMEM, 20 mM Hepes, 2.5 mM probenecid, 0.1% BSA (DMEM assay buffer) cells were loaded with 4 μM Fluo-4 in the same DMEM assay buffer for 2 hours at 30° C. Excess dye was removed and cells were washed with DMEM assay buffer. 384-well compound plates were prepared with DMEM assay buffer/0.5% DMSO with or without various concentrations of test compounds. Usually compounds were tested for agonist and antagonist activity.
Test compounds were added to the assay plate and agonist activity was monitored as fluorescence for 80 seconds with a FLIPR (488 nm excitation; 510-570 nm emission; Molecular Devices). After 20-30 min. of incubation at 30° C., 20 nM […] (R&D; Roche) was added and fluorescence was monitored again for 80 seconds. Increases in intracellular calcium are reported as maximum fluorescence after agonist exposure minus basal fluorescence before exposure.

[2] = target: T1, Bradykinin-1 receptor; assay: Receptor binding assay (B1R Binding Assay), [3H]-Kallidin (Des Arg10, Leu9) displacement; settings: membranes from CHO-K1 cells overexpressing Bradykinin-1 receptor; 6 nM radioligand
Method: Binding assays were done with membranes from CHO-K1 cells overexpressing Bradykinin-1 receptor.
To determine non-specific binding 10 μM Lys-(Des-Arg^9)-Bradykinin (Bachem) was added. Membranes were harvested through GF/B (glass fiber filter; PerkinElmer) plates, equilibrated with 0.5% polyethylenimine, air dried at 50° C. for 2 h. Radioactivity was determined by counting in a topcounter (NXT Packard).

T1 sequence (P46663 whole entry): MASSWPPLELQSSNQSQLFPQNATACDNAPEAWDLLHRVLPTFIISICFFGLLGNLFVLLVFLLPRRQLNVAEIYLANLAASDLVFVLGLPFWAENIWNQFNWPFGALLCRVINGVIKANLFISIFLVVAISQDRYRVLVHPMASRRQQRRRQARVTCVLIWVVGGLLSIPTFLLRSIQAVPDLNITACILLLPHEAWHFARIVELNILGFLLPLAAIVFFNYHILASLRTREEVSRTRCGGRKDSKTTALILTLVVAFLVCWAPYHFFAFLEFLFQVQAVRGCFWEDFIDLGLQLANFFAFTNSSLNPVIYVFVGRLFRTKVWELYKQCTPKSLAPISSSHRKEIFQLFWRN

Compound | IC50 [1] | Ki [2]
Cc1nc(-c2c(F)cc(Cl)cc2-c2ccc3c(c2)CCC3(C)NC(=O)C2(NC(=O)C(F)(F)F)CC2)no1 (racemic) [Example 17, 1-(2,2,2-Trifluoro-acetylamino)-cyclopropanecarboxylic acid{(rac)-5-[5-chloro-3-fluoro-2-(5-methyl-[1,2,4]oxadiazol-3-yl)-phenyl]-1-methyl-indan-1-yl}-amide] | 0.6 nM | 5.9 nM
COc1ncc(C(=O)NC2(C(=O)N[C@H]3CCc4cc(-c5cc(Cl)cc(F)c5-c5noc(C)n5)ccc43)CC2)cn1 [Example 26, 2-Methoxy-pyrimidine-5-carboxylic acid(1-{(S)-5-[5-chloro-3-fluoro-2-(5-methyl-[1,2,4]oxadiazol-3-yl)-phenyl]-indan-1-ylcarbamoyl}-cyclopropyl)-amide] | 0.2 nM | 2.6 nM
COc1ncc(C(=O)NC2(C(=O)NC3CCc4cc(-c5cc(Cl)cc(F)c5-c5nnn(C)n5)cnc43)CC2)cn1 (racemic) [Example 56, 2-Methoxy-pyrimidine-5-carboxylic acid(1-{(rac)-3-[5-chloro-3-fluoro-2-(2-methyl-2H-tetrazol-5-yl)-phenyl]-6,7-dihydro-5H-[1]pyrindin-7-ylcarbamoyl}-cyclopropyl)-amide] | 0.2 nM | 4.5 nM
Cc1nc(-c2c(F)cc(Cl)cc2-c2cnc3c(c2)CCC3NC(=O)C2(NC(=O)c3ccno3)CC2)no1 (racemic) [Example 43, Isoxazole-5-carboxylic acid(1-{(rac)-3-[5-chloro-3-fluoro-2-(5-methyl-[1,2,4]oxadiazol-3-yl)-phenyl]-6,7-dihydro-5H-[1]pyrindin-7-ylcarbamoyl}-cyclopropyl)-amide] | 0.3 nM | 6.3 nM
COc1ncc(C(=O)NC2(C(=O)NC3CCc4cc(-c5cc(Cl)cc(F)c5-c5noc(C)n5)cc(F)c43)CC2)cn1 (racemic) [Example 33, 2-Methoxy-pyrimidine-5-carboxylic acid(1-{(rac)-5-[5-chloro-3-fluoro-2-(5-methyl-[1,2,4]oxadiazol-3-yl)-phenyl]-7-fluoro-indan-1-ylcarbamoyl}-cyclopropyl)-amide] | 0.5 nM | 18.9 nM
Cn1nnc(-c2c(F)cc(Cl)cc2-c2cnc3c(c2)CCC3NC(=O)C2(NC(=O)C(F)(F)F)CC2)n1 (racemic) [Example 13, 1-(2,2,2-Trifluoro-acetylamino)-cyclopropanecarboxylic acid{(rac)-3-[5-chloro-3-fluoro-2-(2-methyl-2H-tetrazol-5-yl)-phenyl]-6,7-dihydro-5H-[1]pyrindin-7-yl}-amide] | 0.5 nM | 9.5 nM
Cn1nnc(-c2c(F)cc(Cl)cc2-c2ccc3c(c2)SCC3NC(=O)C2(N)CC2)n1 (racemic) [Example 61, 1-Amino-cyclopropanecarboxylic acid{(rac)-6-[5-chloro-3-fluoro-2-(2-methyl-2H-tetrazol-5-yl)-phenyl]-2,3-dihydro-benzo[b]thiophen-3-yl}-amide] | 17.4 nM | 264 nM
Cc1nc(-c2c(F)cc(Cl)cc2-c2ccc3c(c2)CC[C@@H]3NC(=O)C2(NC(=O)C(F)(F)F)COC2)no1 [Example 7, 3-(2,2,2-Trifluoro-acetylamino)-oxetane-3-carboxylic acid{(S)-5-[5-chloro-3-fluoro-2-(5-methyl-[1,2,4]oxadiazol-3-yl)-phenyl]-indan-1-yl}-amide] | 28.6 nM | 37.4 nM
Cn1nnc(-c2c(F)cc(Cl)cc2-c2ccc3c(c2)SCC3NC(=O)C2(NC(=O)c3ccno3)CC2)n1 (racemic) [Example 64, Isoxazole-5-carboxylic acid(1-{(rac)-6-[5-chloro-3-fluoro-2-(2-methyl-2H-tetrazol-5-yl)-phenyl]-2,3-dihydro-benzo[b]thiophen-3-ylcarbamoyl}-cyclopropyl)-amide] | 0.5 nM | 7.1 nM
Cc1nc(-c2c(F)cc(Cl)cc2-c2cnc3c(c2)CCC3NC(=O)C2(NC(=O)C(F)(F)F)CC2)no1 (racemic) [Example 12, 1-(2,2,2-Trifluoro-acetylamino)-cyclopropanecarboxylic acid{(rac)-3-[5-chloro-3-fluoro-2-(5-methyl-[1,2,4]oxadiazol-3-yl)-phenyl]-6,7-dihydro-5H-[1]pyrindin-7-yl}-amide] | 0.5 nM | 4.4 nM

The remaining compounds from weak to strong by IC50 [1], led by results:

IC50 [1] | Ki [2] | Compound
135 nM | 475 nM | Cc1nc(-c2c(F)cc(Cl)cc2-c2cc(F)c3c(c2)CCC3NC(=O)C2(NC(=O)OC(C)(C)C)CC2)no1 (racemic) [Example 31, (1-{(rac)-5-[5-Chloro-3-fluoro-2-(5-methyl-[1,2,4]oxadiazol-3-yl)-phenyl]-7-fluoro-indan-1-ylcarbamoyl}-cyclopropyl)-carbamic acid tert-butyl ester]
95.6 nM | 458 nM | Cc1nc(-c2c(F)cc(Cl)cc2-c2cc(F)c3c(c2)CCC3NC(=O)C2(N)CC2)no1 (racemic) [Example 32, 1-Amino-cyclopropanecarboxylic acid{(rac)-5-[5-chloro-3-fluoro-2-(5-methyl-[1,2,4]oxadiazol-3-yl)-phenyl]-7-fluoro-indan-1-yl}-amide]
35.2 nM | 130 nM | Cc1nc(-c2c(F)cc(Cl)cc2-c2cnc3c(c2)CCC3NC(=O)C2(NC(=O)c3ccnnc3)CC2)no1 (single isomer, unassigned) [Example 40, Pyridazine-4-carboxylic acid(1-{(R or S) 3-[5-chloro-3-fluoro-2-(5-methyl-[1,2,4]oxadiazol-3-yl)-phenyl]-6,7-dihydro-5H-[1]pyrindin-7-ylcarbamoyl}-cyclopropyl)-amide]
24.4 nM | 30.3 nM | Cn1nnc(-c2c(F)cc(Cl)cc2-c2ccc3c(c2)CC[C@@H]3NC(=O)C2(NC(=O)C(F)(F)F)COC2)n1 [Example 8, 3-(2,2,2-Trifluoro-acetylamino)-oxetane-3-carboxylic acid{(S)-5-[5-chloro-3-fluoro-2-(2-methyl-2H-tetrazol-5-yl)-phenyl]-indan-1-yl}-amide]
5.8 nM | 63.2 nM | Cn1nnc(-c2c(F)cc(Cl)cc2-c2cnc3c(c2)CCC3NC(=O)C2(NC(=O)OC(C)(C)C)CC2)n1 (racemic) [Example 54, (1-{(rac)-3-[5-Chloro-3-fluoro-2-(2-methyl-2H-tetrazol-5-yl)-phenyl]-6,7-dihydro-5H-[1]pyrindin-7-ylcarbamoyl}-cyclopropyl)-carbamic acid tert-butyl ester]
0.6 nM | 6.2 nM | Cc1nc(-c2c(F)cc(Cl)cc2-c2ccc3c(c2)CC[C@@H]3NC(=O)C2(NC(=O)C(F)(F)F)CC2)no1 [Example 5, 1-(2,2,2-Trifluoro-acetylamino)-cyclopropanecarboxylic acid{(S)-5-[5-chloro-3-fluoro-2-(5-methyl-[1,2,4]oxadiazol-3-yl)-phenyl]-indan-1-yl}-amide]
0.5 nM | 6.7 nM | Cn1nnc(-c2c(F)cc(Cl)cc2-c2ccc3c(c2)CCC3(C)NC(=O)C2(NC(=O)C(F)(F)F)CC2)n1 (racemic) [Example 18, 1-(2,2,2-Trifluoro-acetylamino)-cyclopropanecarboxylic acid{(rac)-5-[5-chloro-3-fluoro-2-(2-methyl-2H-tetrazol-5-yl)-phenyl]-1-methyl-indan-1-yl}-amide]
0.4 nM | 3.6 nM | Cc1nc(-c2c(F)cc(Cl)cc2-c2ccc3c(c2)CC[C@@H]3NC(=O)C2(NC(=O)c3ccnnc3)CC2)no1 [Example 27, Pyridazine-4-carboxylic acid(1-{(S)-5-[5-chloro-3-fluoro-2-(5-methyl-[1,2,4]oxadiazol-3-yl)-phenyl]-indan-1-ylcarbamoyl}-cyclopropyl)-amide]
0.2 nM | 5.4 nM | COc1ncc(C(=O)NC2(C(=O)NC3COc4cc(-c5cc(Cl)cc(F)c5-c5noc(C)n5)ccc43)CC2)cn1 (racemic) [Example 47, 2-Methoxy-pyrimidine-5-carboxylic acid(1-{(rac)-6-[5-chloro-3-fluoro-2-(5-methyl-[1,2,4]oxadiazol-3-yl)-phenyl]-2,3-dihydro-benzofuran-3-ylcarbamoyl}-cyclopropyl)-amide]
